Measurements taken from ChEMBL document CHEMBL3885861, “Open TG-GATES”.

Organism: Rattus norvegicus
Experiment: Open TG-GATES - Regimen: Single
Format: toxicity, organism-based, Sprague-Dawley
Design: regimen Single, gender Male, age 6 weeks
Conditions: in vivo, po, 0 mg/kg, route gavage, dose level Control; for APTT / Bas / Eos / Fbg / Hb / Ht / Lym / MCH / MCHC / MCV / Mono / Neu / PT / Plat / RBC / Ret / WBC: tissue Blood; for KIDNEY_L / KIDNEY_R / KIDNEY_TOTAL: tissue Kidney; for LIVER: tissue Liver; for A/G / ALP / ALT / AST / BUN / CRE / Ca / Cl / DBIL / GLC / IP / K / LDH / Na / PL / RALB / TBIL / TC / TG / TP / gamma-GTP: tissue Plasma

SMILES: O=C(O)c1cc(/N=N/c2ccc(S(=O)(=O)Nc3ccccn3)cc2)ccc1O [SULFASALAZINE]
- TERMINAL_BW (3 h): 209.5 g
- APTT (3 h): 18.5 s
- Bas (3 h): 0%
- Eos (3 h): 0.8%
- Fbg (3 h): 220.4 mg/dL
- Hb (3 h): 12.8 g/dL
- Ht (3 h): 38.5%
- Lym (3 h): 80.4%
- MCH (3 h): 21.2 pg
- MCHC (3 h): 33.4%
- MCV (3 h): 63.4 fL
- Mono (3 h): 1.8%
- Neu (3 h): 16.4%
- PT (3 h): 12.8 s
- Plat (3 h): 116.8 x10_4/uL
- RBC (3 h): 607.8 x10_4/ul
- Ret (3 h): 7.5%
- WBC (3 h): 77.9 x10_2/uL
- KIDNEY_L (3 h): 0.9 g
- KIDNEY_R (3 h): 0.9 g
- KIDNEY_TOTAL (3 h): 1.9 g
- LIVER (3 h): 9.9 g
- A/G (3 h): 1.5
- ALP (3 h): 1055 IU/L
- ALT (3 h): 36.8 IU/L
- AST (3 h): 60.2 IU/L
- BUN (3 h): 12 mg/dL
- CRE (3 h): 0.4 mg/dL
- Ca (3 h): 10.6 mg/dL
- Cl (3 h): 101.6 meq/L
- DBIL (3 h): 0.074 mg/dL
- GLC (3 h): 196 mg/dL
- IP (3 h): 9.4 mg/dL
- K (3 h): 3.9 meq/L
- LDH (3 h): 182 IU/L
- Na (3 h): 140.2 meq/L
- PL (3 h): 140.6 mg/dL
- RALB (3 h): 3.2 g/dL
- TBIL (3 h): 0.1 mg/dL
- TC (3 h): 78 mg/dL
- TG (3 h): 73.8 mg/dL
- TP (3 h): 5.5 g/dL
- gamma-GTP (3 h): 1.4 IU/L
- TERMINAL_BW (6 h): 206.9 g
- APTT (6 h): 20.7 s
- Bas (6 h): 0%
- Eos (6 h): 1%
- Fbg (6 h): 224 mg/dL
- Hb (6 h): 13.2 g/dL
- Ht (6 h): 38.3%
- Lym (6 h): 75.8%
- MCH (6 h): 21.8 pg
- MCHC (6 h): 34.4%
- MCV (6 h): 63.6 fL
- Mono (6 h): 2.8%
- Neu (6 h): 19.2%
- PT (6 h): 12.9 s
- Plat (6 h): 114.7 x10_4/uL
- RBC (6 h): 602.8 x10_4/ul
- Ret (6 h): 7.7%
- WBC (6 h): 74.8 x10_2/uL
- KIDNEY_L (6 h): 1 g
- KIDNEY_R (6 h): 1 g
- KIDNEY_TOTAL (6 h): 2 g
- LIVER (6 h): 9.4 g
- A/G (6 h): 1.6
- ALP (6 h): 989.2 IU/L
- ALT (6 h): 35.8 IU/L
- AST (6 h): 65.8 IU/L
- BUN (6 h): 10.4 mg/dL
- CRE (6 h): 0.3 mg/dL
- Ca (6 h): 10.6 mg/dL
- Cl (6 h): 101.6 meq/L
- DBIL (6 h): 0.07 mg/dL
- GLC (6 h): 189.2 mg/dL
- IP (6 h): 9.4 mg/dL
- K (6 h): 4 meq/L
- LDH (6 h): 182.6 IU/L
- Na (6 h): 140.6 meq/L
- PL (6 h): 141.2 mg/dL
- RALB (6 h): 3.3 g/dL
- TBIL (6 h): 0.1 mg/dL
- TC (6 h): 73.2 mg/dL
- TG (6 h): 58 mg/dL
- TP (6 h): 5.4 g/dL
- gamma-GTP (6 h): 1.2 IU/L
- TERMINAL_BW (9 h): 205 g
- APTT (9 h): 18.9 s
- Bas (9 h): 0%
- Eos (9 h): 1%
- Fbg (9 h): 213.2 mg/dL
- Hb (9 h): 13.1 g/dL
- Ht (9 h): 38.3%
- Lym (9 h): 72.6%
- MCH (9 h): 21.5 pg
- MCHC (9 h): 34.1%
- MCV (9 h): 63 fL
- Mono (9 h): 3%
- Neu (9 h): 22.2%
- PT (9 h): 12.8 s
- Plat (9 h): 115.1 x10_4/uL
- RBC (9 h): 608.8 x10_4/ul
- Ret (9 h): 7%
- WBC (9 h): 85.1 x10_2/uL
- KIDNEY_L (9 h): 0.9 g
- KIDNEY_R (9 h): 0.9 g
- KIDNEY_TOTAL (9 h): 1.8 g
- LIVER (9 h): 8.7 g
- A/G (9 h): 1.6
- ALP (9 h): 765.6 IU/L
- ALT (9 h): 31.8 IU/L
- AST (9 h): 63.2 IU/L
- BUN (9 h): 11.4 mg/dL
- CRE (9 h): 0.4 mg/dL
- Ca (9 h): 10.5 mg/dL
- Cl (9 h): 103 meq/L
- DBIL (9 h): 0.078 mg/dL
- GLC (9 h): 207.2 mg/dL
- IP (9 h): 9.3 mg/dL
- K (9 h): 3.9 meq/L
- LDH (9 h): 194.2 IU/L
- Na (9 h): 141.2 meq/L
- PL (9 h): 142.2 mg/dL
- RALB (9 h): 3.4 g/dL
- TBIL (9 h): 0.1 mg/dL
- TC (9 h): 73.2 mg/dL
- TG (9 h): 76.4 mg/dL
- TP (9 h): 5.5 g/dL
- gamma-GTP (9 h): 2 IU/L
- TERMINAL_BW (24 h): 224.5 g
- APTT (24 h): 18.9 s
- Bas (24 h): 0%
- Eos (24 h): 1%
- Fbg (24 h): 220.8 mg/dL
- Hb (24 h): 13.3 g/dL
- Ht (24 h): 39%
- Lym (24 h): 73.8%
- MCH (24 h): 21.9 pg
- MCHC (24 h): 34%
- MCV (24 h): 64.3 fL
- Mono (24 h): 3.6%
- Neu (24 h): 20.4%
- PT (24 h): 12.1 s
- Plat (24 h): 117.1 x10_4/uL
- RBC (24 h): 607.2 x10_4/ul
- Ret (24 h): 6.9%
- WBC (24 h): 89.1 x10_2/uL
- KIDNEY_L (24 h): 1 g
- KIDNEY_R (24 h): 1 g
- KIDNEY_TOTAL (24 h): 2 g
- LIVER (24 h): 10.8 g
- A/G (24 h): 1.5
- ALP (24 h): 961.8 IU/L
- ALT (24 h): 45 IU/L
- AST (24 h): 75.8 IU/L
- BUN (24 h): 16.6 mg/dL
- CRE (24 h): 0.4 mg/dL
- Ca (24 h): 10.7 mg/dL
- Cl (24 h): 101.6 meq/L
- DBIL (24 h): 0.1 mg/dL
- GLC (24 h): 193.8 mg/dL
- IP (24 h): 8.1 mg/dL
- K (24 h): 4.1 meq/L
- LDH (24 h): 214.4 IU/L
- Na (24 h): 140 meq/L
- PL (24 h): 181.4 mg/dL
- RALB (24 h): 3.4 g/dL
- TBIL (24 h): 0.2 mg/dL
- TC (24 h): 89.4 mg/dL
- TG (24 h): 133 mg/dL
- TP (24 h): 5.6 g/dL
- gamma-GTP (24 h): 1.2 IU/L
